Data as given in ChEMBL document CHEMBL1681676, “The design and synthesis of novel N-hydroxyformamide inhibitors of ADAM-TS4 for the treatment of osteoarthritis” (Bioorg Med Chem Lett, 2011).

molecular target: Matrix metalloproteinase-14 (Homo sapiens, UniProt P50281); experiment: Inhibition of recombinant human MMP14 assessed as substrate cleavage by measuring increase in fluorescence after 16 hrs

Row | IC50 [µM] | SMILES
1 | 0.16 | Cc1cc(F)ccc1CCC1CCN(S(=O)(=O)C[C@](C)(C[C@H](C)c2ncc(F)cn2)N(O)C=O)CC1
2 | 4.6 | Cc1cc(C(F)(F)F)ccc1CCC1CCN(S(=O)(=O)C[C@](C)(C[C@H](C)c2ncc(F)cn2)N(O)C=O)CC1
3 | 18 | C[C@@H](C[C@@](C)(CS(=O)(=O)N1CCC(CCc2ccc(C(F)(F)F)cc2C2CC2)CC1)N(O)C=O)c1ncc(F)cn1
4 | 4.2 | Cc1ccc(C)c(CCC2CCN(S(=O)(=O)C[C@](C)(C[C@H](C)c3ncc(F)cn3)N(O)C=O)CC2)c1
5 | 17 | Cc1cc(CCC2CCN(S(=O)(=O)C[C@](C)(C[C@H](C)c3ncc(F)cn3)N(O)C=O)CC2)c(C)cn1
6 | > 8 | Cc1cnc(C)c(CCC2CCN(S(=O)(=O)C[C@](C)(C[C@H](C)c3ncc(F)cn3)N(O)C=O)CC2)c1

molecular target: 72 kDa type IV collagenase (Homo sapiens, UniProt P08253); experiment: Inhibition of recombinant human MMP2 assessed as substrate cleavage by measuring increase in fluorescence after 16 hrs
Sequence (P08253 whole entry): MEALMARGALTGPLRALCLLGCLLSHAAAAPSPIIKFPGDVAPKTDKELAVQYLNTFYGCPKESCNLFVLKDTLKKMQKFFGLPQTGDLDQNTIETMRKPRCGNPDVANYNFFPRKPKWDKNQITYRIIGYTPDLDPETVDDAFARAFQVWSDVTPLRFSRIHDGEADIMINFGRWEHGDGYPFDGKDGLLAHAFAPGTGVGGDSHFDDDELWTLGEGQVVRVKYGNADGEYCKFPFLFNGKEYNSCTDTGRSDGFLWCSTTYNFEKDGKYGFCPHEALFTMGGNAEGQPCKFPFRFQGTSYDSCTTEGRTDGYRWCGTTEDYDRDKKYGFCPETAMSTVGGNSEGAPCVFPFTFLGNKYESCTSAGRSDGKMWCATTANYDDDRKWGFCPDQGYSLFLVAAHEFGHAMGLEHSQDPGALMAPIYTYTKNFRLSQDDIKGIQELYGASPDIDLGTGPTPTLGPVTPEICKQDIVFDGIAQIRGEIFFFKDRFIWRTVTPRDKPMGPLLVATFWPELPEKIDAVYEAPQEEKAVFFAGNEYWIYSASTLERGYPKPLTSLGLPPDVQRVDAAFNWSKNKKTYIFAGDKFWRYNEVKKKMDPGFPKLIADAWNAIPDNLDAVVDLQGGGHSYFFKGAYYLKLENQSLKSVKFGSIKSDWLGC

Row | IC50 [µM] | SMILES
7 | 0.12 | Cc1cc(F)ccc1CCC1CCN(S(=O)(=O)C[C@](C)(C[C@H](C)c2ncc(F)cn2)N(O)C=O)CC1
8 | 0.35 | Cc1cc(C(F)(F)F)ccc1CCC1CCN(S(=O)(=O)C[C@](C)(C[C@H](C)c2ncc(F)cn2)N(O)C=O)CC1
9 | > 9.1 | C[C@@H](C[C@@](C)(CS(=O)(=O)N1CCC(CCc2ccc(C(F)(F)F)cc2C2CC2)CC1)N(O)C=O)c1ncc(F)cn1
10 | 4.2 | Cc1ccc(C)c(CCC2CCN(S(=O)(=O)C[C@](C)(C[C@H](C)c3ncc(F)cn3)N(O)C=O)CC2)c1
11 | 12 | Cc1cc(CCC2CCN(S(=O)(=O)C[C@](C)(C[C@H](C)c3ncc(F)cn3)N(O)C=O)CC2)c(C)cn1
12 | 35 | Cc1cnc(C)c(CCC2CCN(S(=O)(=O)C[C@](C)(C[C@H](C)c3ncc(F)cn3)N(O)C=O)CC2)c1

molecular target: Collagenase 3 (Homo sapiens, UniProt P45452); experiment: Inhibition of recombinant human MMP13 assessed as substrate cleavage by measuring increase in fluorescence after 16 hrs

Row | IC50 [µM] | SMILES
13 | 0.53 | Cc1cc(F)ccc1CCC1CCN(S(=O)(=O)C[C@](C)(C[C@H](C)c2ncc(F)cn2)N(O)C=O)CC1
14 | 2.3 | Cc1cc(C(F)(F)F)ccc1CCC1CCN(S(=O)(=O)C[C@](C)(C[C@H](C)c2ncc(F)cn2)N(O)C=O)CC1
15 | 17 | C[C@@H](C[C@@](C)(CS(=O)(=O)N1CCC(CCc2ccc(C(F)(F)F)cc2C2CC2)CC1)N(O)C=O)c1ncc(F)cn1
16 | 23 | Cc1ccc(C)c(CCC2CCN(S(=O)(=O)C[C@](C)(C[C@H](C)c3ncc(F)cn3)N(O)C=O)CC2)c1
17 | 14 | Cc1cc(CCC2CCN(S(=O)(=O)C[C@](C)(C[C@H](C)c3ncc(F)cn3)N(O)C=O)CC2)c(C)cn1
18 | 27 | Cc1cnc(C)c(CCC2CCN(S(=O)(=O)C[C@](C)(C[C@H](C)c3ncc(F)cn3)N(O)C=O)CC2)c1

molecular target: T1, A disintegrin and metalloproteinase with thrombospondin motifs 4 (Homo sapiens, UniProt O75173); experiment: Inhibition of ADAMTS-4 assessed as substrate cleavage by measuring increase in fluorescence after 16 hrs
T1 sequence (O75173 whole entry): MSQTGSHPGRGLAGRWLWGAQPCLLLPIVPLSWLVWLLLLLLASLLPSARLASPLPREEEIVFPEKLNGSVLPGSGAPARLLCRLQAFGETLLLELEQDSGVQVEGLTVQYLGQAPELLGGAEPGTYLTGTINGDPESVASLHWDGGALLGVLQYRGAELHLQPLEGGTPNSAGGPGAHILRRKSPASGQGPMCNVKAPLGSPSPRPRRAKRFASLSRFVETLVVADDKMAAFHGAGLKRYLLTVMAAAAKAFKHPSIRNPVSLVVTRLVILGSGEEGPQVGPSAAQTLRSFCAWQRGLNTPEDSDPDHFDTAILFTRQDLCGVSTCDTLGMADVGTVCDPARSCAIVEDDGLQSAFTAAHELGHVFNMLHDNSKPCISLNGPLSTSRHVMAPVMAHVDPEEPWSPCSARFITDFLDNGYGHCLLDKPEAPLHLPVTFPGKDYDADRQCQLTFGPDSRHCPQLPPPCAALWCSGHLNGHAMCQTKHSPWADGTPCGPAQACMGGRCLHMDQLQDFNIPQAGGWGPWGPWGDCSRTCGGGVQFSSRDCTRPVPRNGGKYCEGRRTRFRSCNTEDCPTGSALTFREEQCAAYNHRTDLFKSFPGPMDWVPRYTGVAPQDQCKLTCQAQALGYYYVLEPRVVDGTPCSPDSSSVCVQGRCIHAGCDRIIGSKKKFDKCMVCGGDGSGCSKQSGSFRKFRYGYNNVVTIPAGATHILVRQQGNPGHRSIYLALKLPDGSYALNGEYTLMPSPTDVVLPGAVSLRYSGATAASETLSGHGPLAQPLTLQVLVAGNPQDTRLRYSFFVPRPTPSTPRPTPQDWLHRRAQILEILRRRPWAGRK

Row | IC50 [µM] | SMILES
19 | 0.00018 | Cc1cc(F)ccc1CCC1CCN(S(=O)(=O)C[C@](C)(C[C@H](C)c2ncc(F)cn2)N(O)C=O)CC1
20 | 0.00049 | Cc1cc(C(F)(F)F)ccc1CCC1CCN(S(=O)(=O)C[C@](C)(C[C@H](C)c2ncc(F)cn2)N(O)C=O)CC1
21 | 0.00094 | C[C@@H](C[C@@](C)(CS(=O)(=O)N1CCC(CCc2ccc(C(F)(F)F)cc2C2CC2)CC1)N(O)C=O)c1ncc(F)cn1
22 | 0.00048 | Cc1ccc(C)c(CCC2CCN(S(=O)(=O)C[C@](C)(C[C@H](C)c3ncc(F)cn3)N(O)C=O)CC2)c1
23 | 0.00043 | Cc1cc(CCC2CCN(S(=O)(=O)C[C@](C)(C[C@H](C)c3ncc(F)cn3)N(O)C=O)CC2)c(C)cn1
24 | 0.0019 | Cc1cnc(C)c(CCC2CCN(S(=O)(=O)C[C@](C)(C[C@H](C)c3ncc(F)cn3)N(O)C=O)CC2)c1

molecular target: Disintegrin and metalloproteinase domain-containing protein 17 (Homo sapiens, UniProt P78536); experiment: Inhibition of TACE assessed as substrate cleavage by measuring increase in fluorescence after 16 hrs
Sequence (P78536 whole entry, the tested form may be a part): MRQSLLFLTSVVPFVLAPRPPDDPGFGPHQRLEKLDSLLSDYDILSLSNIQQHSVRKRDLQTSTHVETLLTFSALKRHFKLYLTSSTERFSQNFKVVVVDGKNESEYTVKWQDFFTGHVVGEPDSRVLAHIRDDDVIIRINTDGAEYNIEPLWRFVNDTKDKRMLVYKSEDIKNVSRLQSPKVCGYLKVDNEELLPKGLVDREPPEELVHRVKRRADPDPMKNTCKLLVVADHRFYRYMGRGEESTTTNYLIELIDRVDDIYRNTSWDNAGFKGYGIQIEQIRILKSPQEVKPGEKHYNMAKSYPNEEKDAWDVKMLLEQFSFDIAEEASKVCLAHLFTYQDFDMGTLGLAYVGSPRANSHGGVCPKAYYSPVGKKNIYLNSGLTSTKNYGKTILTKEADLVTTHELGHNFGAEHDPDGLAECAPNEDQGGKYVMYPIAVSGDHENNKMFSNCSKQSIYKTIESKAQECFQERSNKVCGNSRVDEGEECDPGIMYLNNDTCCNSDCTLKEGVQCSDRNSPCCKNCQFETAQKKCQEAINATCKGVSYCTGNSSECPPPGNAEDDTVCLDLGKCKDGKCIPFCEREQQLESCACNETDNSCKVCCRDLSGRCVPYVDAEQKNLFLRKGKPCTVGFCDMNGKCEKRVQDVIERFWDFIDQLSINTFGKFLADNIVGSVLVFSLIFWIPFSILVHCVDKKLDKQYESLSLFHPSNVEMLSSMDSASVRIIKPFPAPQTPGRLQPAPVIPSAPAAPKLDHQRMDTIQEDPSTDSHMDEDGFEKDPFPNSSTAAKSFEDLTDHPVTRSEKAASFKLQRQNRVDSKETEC

Row | IC50 [µM] | SMILES
25 | 0.021 | Cc1cc(F)ccc1CCC1CCN(S(=O)(=O)C[C@](C)(C[C@H](C)c2ncc(F)cn2)N(O)C=O)CC1
26 | 0.42 | Cc1cc(C(F)(F)F)ccc1CCC1CCN(S(=O)(=O)C[C@](C)(C[C@H](C)c2ncc(F)cn2)N(O)C=O)CC1
27 | 3.2 | C[C@@H](C[C@@](C)(CS(=O)(=O)N1CCC(CCc2ccc(C(F)(F)F)cc2C2CC2)CC1)N(O)C=O)c1ncc(F)cn1
28 | 0.022 | Cc1ccc(C)c(CCC2CCN(S(=O)(=O)C[C@](C)(C[C@H](C)c3ncc(F)cn3)N(O)C=O)CC2)c1
29 | 0.23 | Cc1cc(CCC2CCN(S(=O)(=O)C[C@](C)(C[C@H](C)c3ncc(F)cn3)N(O)C=O)CC2)c(C)cn1
30 | 1.4 | Cc1cnc(C)c(CCC2CCN(S(=O)(=O)C[C@](C)(C[C@H](C)c3ncc(F)cn3)N(O)C=O)CC2)c1

molecular target: T2, Interstitial collagenase (Homo sapiens, UniProt P03956); experiment: Inhibition of recombinant human MMP1 assessed as substrate cleavage by measuring increase in fluorescence after 16 hrs
T2 sequence (P03956 whole entry): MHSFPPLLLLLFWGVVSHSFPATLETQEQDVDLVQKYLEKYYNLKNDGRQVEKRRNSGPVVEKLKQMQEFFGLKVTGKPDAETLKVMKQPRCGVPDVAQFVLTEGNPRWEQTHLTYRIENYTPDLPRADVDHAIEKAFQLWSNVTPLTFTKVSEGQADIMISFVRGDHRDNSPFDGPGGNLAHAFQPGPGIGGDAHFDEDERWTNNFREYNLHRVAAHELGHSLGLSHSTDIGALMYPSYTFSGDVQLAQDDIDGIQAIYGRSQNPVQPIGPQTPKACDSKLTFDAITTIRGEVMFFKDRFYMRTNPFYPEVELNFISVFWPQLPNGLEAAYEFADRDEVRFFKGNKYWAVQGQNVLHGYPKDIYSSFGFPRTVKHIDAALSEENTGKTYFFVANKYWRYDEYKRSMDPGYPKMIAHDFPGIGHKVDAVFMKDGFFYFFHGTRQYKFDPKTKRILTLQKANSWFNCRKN

Row | IC50 [µM] | SMILES
31 | > 8.1 | Cc1cc(F)ccc1CCC1CCN(S(=O)(=O)C[C@](C)(C[C@H](C)c2ncc(F)cn2)N(O)C=O)CC1
32 | > 10 | Cc1cc(C(F)(F)F)ccc1CCC1CCN(S(=O)(=O)C[C@](C)(C[C@H](C)c2ncc(F)cn2)N(O)C=O)CC1
33 | > 10 | C[C@@H](C[C@@](C)(CS(=O)(=O)N1CCC(CCc2ccc(C(F)(F)F)cc2C2CC2)CC1)N(O)C=O)c1ncc(F)cn1
34 | > 10 | Cc1ccc(C)c(CCC2CCN(S(=O)(=O)C[C@](C)(C[C@H](C)c3ncc(F)cn3)N(O)C=O)CC2)c1
35 | > 100 | Cc1cc(CCC2CCN(S(=O)(=O)C[C@](C)(C[C@H](C)c3ncc(F)cn3)N(O)C=O)CC2)c(C)cn1
36 | 55 | Cc1cnc(C)c(CCC2CCN(S(=O)(=O)C[C@](C)(C[C@H](C)c3ncc(F)cn3)N(O)C=O)CC2)c1
